Values of other authors in patent US6280768A, “Berberine alkaloids as a treatment for chronic protozoally induced diarrhea” (PRM Pharmaceuticals, Inc., priority 1997, dated 2001).

Legend:
microsporidia = conditions: some AIDS patients; cited from earlier work
Enterocytozoon bieneusi = conditions: cited from earlier work
microsporidiosis = conditions: cited from earlier work
E. bieneusi = conditions: cited from earlier work
E. intestinalis = conditions: cited from earlier work

CCCSc1ccc2nc(NC(=O)OC)[nH]c2c1 [albendazole]
relief of diarrhea (microsporidia): temporarily relieve the diarrhea of some AIDS patients
reduction in parasite load (Enterocytozoon bieneusi; after oral treatment): no significant reduction in parasite load
changes in the parasite (Enterocytozoon bieneusi; human, in vivo): degenerative changes in the parasite
patients relapsed within one month (Enterocytozoon bieneusi; human, in vivo): Four of five patients relapsed within one month
relapse of the fifth patient (Enterocytozoon bieneusi; human, in vivo): the fifth patient relapsed within two months
resolution of chronic diarrhea (Enterocytozoon bieneusi; six AIDS patients): effective in resolving the chronic diarrhea of six AIDS patients
remission of diarrhea (microsporidiosis; 18 AIDS patients): 70%
arrest of parasite development (microsporidiosis; human, in vivo): did not completely arrest development
rate of parasite reproduction (microsporidiosis; interfering with tubulin polymerization): slow the rate of parasite reproduction
parasite load (microsporidiosis; patients who responded): reduction in parasite load in those patients who responded
E. bieneusi spores in small bowel biopsies (E. bieneusi; following treatment): spores were still present
symptoms and parasite burden (E. bieneusi; some of 29 patients): improved symptoms and reduced the parasite burden in some of their 29 patients
clearing E. intestinalis from the stools (E. intestinalis; five AIDS patients): initially effective in clearing E. intestinalis from the stools
patients with spores of E. intestinalis again detected in stools (E. intestinalis; followed for more than one month): two of four patients
duration of relief (E. intestinalis; human, in vivo): relief was only temporary
relapse during maintenance therapy (E. intestinalis; human, in vivo): Relapse occurred in one patient
